From PMC8626775, “Anti-schistosomal activities of quinoxaline-containing compounds: From hit identification to lead optimisation” (European Journal of Medicinal Chemistry, 2021)
pEC50: −log10 of the molar value.

Key:
[1] = test system: Juvenile S. mansoni worms; assay: S. mansoni juvenile worm screen (motility score, propidium iodide uptake), 72 h; type: cell-based, Schistosoma mansoni; settings: for pEC50: 3 week juvenile S. mansoni; for PI pos: juvenile worms, Fig. S4
Excerpt: Mice (Mus musculus HsdOLa:TO - Tuck Ordinary; Envigo, UK) were used for the mammalian-specific propagation of the S. mansoni life cycle. Experimental animals were infected with 4000 or 180 S. mansoni cercariae/mouse and perfused three- or seven-weeks post-infection to obtain S. mansoni juvenile or adult worms, respectively. Preparation steps following perfusion have been described previously. Briefly, the parasite material was washed three times with pre-warmed adult worm media (DMEM (Gibco, Paisley, UK) supplemented with 10% (v/v) Fetal Calf Serum (FCS, Gibco, Paisley, UK), 1% (v/v) L-glutamine (Gibco, Paisley, UK) and an antibiotic mixture (150 Units/ml penicillin and 150 μg/ml streptomycin; Gibco, UK)) to remove residual host contamination and incubated in a humidified environment containing 5% CO2 at 37 °C for at least 1 h.
Juvenile worms were distributed in a 96-well tissue culture plate (n = 20–25 individuals/well) containing 200 μl/well. Compounds were added to each treatment well at a concentration range of 10–0.156 μM. Negative (1.25% DMSO) and positive (15 μM PZQ and 15 μM AUR in 1.25% DMSO) controls were also included in each drug screen. Treated juvenile worms were incubated for 72 h in a humidified environment containing 5% CO2 at 37 °C. Compound-induced phenotype and motility effects were quantified using an adapted version of the WHO-TDR scoring system (in summary: 0 = dead, 1 = movement of the suckers only and slight contraction of the body, 2 = movement at the anterior and posterior regions only, 3 = full body movement but sluggish and 4 = normal movement). Additionally, differential uptake of propidium iodide (PI, P1304MP, Sigma-Aldrich, UK) was used to quantify worm viability as previously described. In brief, after 15 min incubation with 2 μg/ml PI, the parasite cultures were imaged under both bright-field and fluorescent settings (PI detection, 562 and 624 excitation and emission wavelengths, respectively) using an ImageXpressXL high content imager (Molecular Devices, UK). Enumeration of PI positive and negative juvenile worms was manually performed across all parasites within the well and the percentage of PI positive parasite was calculated per well.

[2] = in vitro; settings: human, TK6 lymphoblastoid cells
Protocol: The in vitro micronucleus (MN) assay was employed for the assessment of chromosome damage. Human, p53 competent, lymphoblastoid TK6 cells (Cat. No. 95111735) were used in this study and obtained from the European Collection of Authenticated Cell Cultures (ECACC)). RPMI 1640 (Gibco, Paisley, UK) culture media supplemented with 1% penicillin/streptomycin (100 U/ml Penicillin and 100 μg/ml Streptomycin), 10% heat inactivated horse serum (Gibco, Paisley, UK), 1% L-glutamine (Gibco, Paisley, UK) and hygromycine-B was used for TK6 cell culture. Cells were incubated at 37 °C in a humidified atmosphere of 5% (v/v) CO2.

[3] = test system: S. mansoni adult worms; assay: In vitro laid egg (IVLE) production by S. mansoni adult worm pairs, 72 h; type: cell-based, Schistosoma mansoni; settings: 0.0024–10 μM
Protocol: For the evaluation of anti-schistosomal activity on the adult stage of the parasite, 7-wk old worms were transferred into 48 well tissue culture plates (1–3 worm pairs/well, in duplicate). […] DMSO (0.5%) and praziquantel (10 μM in 0.5% DMSO) were also included as negative and positive control treatments. Treated adult worms were incubated for 72 h in a humidified environment containing 5% CO2 at 37 °C. Parasite motility after compound treatment was assessed by a digital image processing-based system (WormassayGP2), modified after Wormassay. Following compound-parasite co-incubation, eggs were collected, fixed in formalin (10% v/v formaldehyde) and enumerated aiming to collect further information on any compound-induced effects on parasite fecundity and IVLE production.

[4] = test system: HepG2 cells; assay: HepG2 MTT cytotoxicity assay
Procedure, shortened: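 HepG2 cells seeded at 2 × 10^4 cells/well, cultured at 37 °C in 5% CO2. Viability by MTT, formazan absorbance at 570 nm. The cytotoxicity value served for computing compound selectivity index.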

Row | Compound | pEC50 ([1]; 72 h) | Concentration down to which parasite death of juvenile worms was induced ([1]; 72 h, supported by propidium iodide staining) [µM] | pEC50 ([1]; Schistosoma mansoni, 72 h) | PI pos ([1]; 0.156 µM) [%] | PI pos ([1]; 0.312 µM) [%] | PI pos ([1]; 0.625 µM) [%] | PI pos ([1]; 1.25 µM) [%] | PI pos ([1]; 2.50 µM) [%] | PI pos ([1]; 5 µM) [%] | PI pos ([1]; 10 µM) [%] | CC50 at 24 h [2] [nM] | Effect on IVLE production compared with PZQ [3] | Toxicity on HepG2 in words ([4]; 24 h) | Selectivity Index (SI) Adult worms ([4]; HepG2 CC50 versus adult worm EC50) | Selectivity Index (SI) Somula ([4]; HepG2 CC50 versus schistosomula EC50)
1 | O=[N+]([O-])c1ccc2nc(Nc3ccc(Cl)c(Cl)c3)c(Nc3ccc(Cl)c(Cl)c3)nc2c1 [Compound 22, N^2, N^3-bis(3,4-dichlorophenyl)-6-nitroquinoxaline-2,3-diamine] | 6.70 | 1.25 | 6.70 | 0 | 10 | 20 | 100 | 100 | 100 | 100 | 9360 |  |  |  | 
2 | O=[N+]([O-])c1ccc2nc(Nc3cc(C(F)(F)F)ccc3F)c(Nc3cc(C(F)(F)F)ccc3F)nc2c1 [Compound 33, N2, N3-bis(2-fluoro-5-(trifluoromethyl)phenyl)-6-nitroquinoxaline-2,3-diamine] |  |  |  |  |  |  |  |  |  |  |  | more potent than PZQ | low toxicity | 17.87 | 0.66
